In general, AUC refers to concentration integrated over time. A high value points to high exposure. Broadly, the Cmax is the highest concentration seen after dosing. For orientation: Tmax means the time from dosing to the highest level.

The source of these data is patent US20110150976A1, “TRANSDERMAL DELIVERY OF OLIGOSACCHARIDES” (TRANSPHARMA MEDICAL LTD., priority 2008, published 2011).

On the set-up of data set [1]: species or system pigs. The conditions noted are these: pig, in vivo. As to the method: Transdermal delivery of fondaparinux from a silicon pouch containing the pentasaccharide in solution through micro-channels generated in pig skin by the […] apparatus was evaluated. The experiment included the following groups: • 1.
Data set [2] can be described thus: Histological assessment of skin after micro-channel generation and treatment with fondaparinux. In kind it is in vivo. The settings on record: pigs, 450 MCs/cm^2, dried patch 1.25 mg, biopsies 13 and 22.5 hours post application. As to the method: Histological assessments were performed in order to determine the effect of application of a high concentration of fondaparinux to skin in which micro-channels have been generated. Pigs were treated with […] apparatus to generate micro-channels at a density of 450 MCs/cm^2 (burst length of 6000 μsec). […] All biopsies (8 mm diameter) were fixed in 4% formaldehyde buffer for at least 48 hrs followed by staining with eosin and hematoxylin (H&E).

For data set [3] the following is noted: human; cited from earlier work.
Details of data set [4]: species or system pigs. The settings on record: pig, in vivo. As to the method: Transdermal delivery of fondaparinux from a printed patch through micro-channels generated in pig skin by the […] apparatus was evaluated. The experiment included the following groups: • 1. […] To prepare the printed patches containing fondaparinux, a concentrated reconstituted solution of Arixtra® (fondaparinux sodium) was applied onto the patch and then air-dried. Each patch was affixed to the […] treated skin for 24 hours.
This is another data set of the same source.

The nature of data set [5]: In-vitro dissolution of printed patches. In kind it is physicochemical. The conditions noted are these: printed patches 5 mg fondaparinux with 3.6 mg NaCl, from lyophilized Arixtra.
Experimental: As the printed patches were prepared following lyophilization of the Arixtra® for injection, 5 mg fondaparinux in each patch contained 3.6 mg of NaCl (42% of the total patch solids).

Where two headings read alike, the source gives them in different places.

`CO[C@H]1O[C@H](COS(=O)(=O)O)[C@@H](O[C@@H]2O[C@@H](C(=O)O)[C@@H](O[C@H]3O[C@H](COS(=O)(=O)O)[C@@H](O[C@@H]4O[C@H](C(=O)O)[C@@H](O[C@H]5O[C@H](COS(=O)(=O)O)[C@@H](O)[C@H](O)[C@H]5NS(=O)(=O)O)[C@H](O)[C@H]4O)[C@H](OS(=O)(=O)O)[C@H]3NS(=O)(=O)O)[C@H](O)[C@H]2OS(=O)(=O)O)[C@H](O)[C@H]1NS(=O)(=O)O` [fondaparinux]: in data set [1] (sc, 1 mg), the AUC came out at 1533.33 ± 1303.96 ng·h/mL and the Cmax was found to be 235.72 ± 47.79 ng/mL. In data set [1] (topical or ocular, 28 mg), this compound yielded an AUC of 5659.33 ± 956.94 ng·h/mL and a Cmax of 709.74 ± 103.61 ng/mL. Moreover, in data set [2], the “abnormalities in the skin tissue (histology, H&E)” value is “no abnormalities” and the “signs of bleeding at the site of the treated skin (histology, H&E)” value is reported as “no signs of bleeding”. In addition, the half-life entry in data set [3] is “approximately 17 hours”. Also, the “bioavailability from printed patches” value in data set [4] (5 mg) is given as 11-17%. In addition, in data set [4] (sc, 1 mg), the “% BA (bioavailability)” value worked out at 100%, the AUC is 291 1.25 ± 2242.07 ng*h/ml and the Tmax amounted to 2 h. The “in-vitro dissolution of printed patches” value in data set [5] was around 85%.
